According to paper PMC7180638, “Synthesis of Pyrrolidine Monocyclic Analogues of Pochonicine and Its Stereoisomers: Pursuit of Simplified Structures and Potent β-N-Acetylhexosaminidase Inhibition” (Molecules, 2020):
Counter-ions that a name gives are not always drawn. Like-named read-outs stand apart in the source and are kept apart here.

How the values were obtained:
Assay type in all cases: biochemical
Rat intestinal maltase = Rat intestinal maltase inhibition; details: α-Glucosidase
Procedure: (§1) With rat intestinal maltase as an exception, other enzymes were purchased from Sigma-Aldrich Chemical Co. (St. Louis, MO, USA). Brush border membranes prepared from rat small intestine according to the method of Kessler et al. were assayed at pH 6.8 for rat intestinal maltase using maltose. The released D-glucose was determined colorimetrically using the Glucose CII-test Wako (Wako Pure Chemical Ind.; Osaka, Japan). Other glycosidase activities were determined using an appropriate p-nitrophenyl glycoside as substrate in a buffer solution at the optimal pH value of each enzyme. The reaction was stopped by adding 400 mM Na2CO3. The released p-nitrophenol was measured spectrometrically at 400 nm.

β-Glucosidase (Almond) = test: β-Glucosidase (almond) inhibition
Procedure: as §1

[1] = biological target: T1, α-Mannosidase (Jack bean) (Canavalia ensiformis, UniProt C0HJB3); test: α-Mannosidase (Jack bean) inhibition
T1 construct: purchased Sigma-Aldrich Chemical Co
T1 sequence (C0HJB3 1-981): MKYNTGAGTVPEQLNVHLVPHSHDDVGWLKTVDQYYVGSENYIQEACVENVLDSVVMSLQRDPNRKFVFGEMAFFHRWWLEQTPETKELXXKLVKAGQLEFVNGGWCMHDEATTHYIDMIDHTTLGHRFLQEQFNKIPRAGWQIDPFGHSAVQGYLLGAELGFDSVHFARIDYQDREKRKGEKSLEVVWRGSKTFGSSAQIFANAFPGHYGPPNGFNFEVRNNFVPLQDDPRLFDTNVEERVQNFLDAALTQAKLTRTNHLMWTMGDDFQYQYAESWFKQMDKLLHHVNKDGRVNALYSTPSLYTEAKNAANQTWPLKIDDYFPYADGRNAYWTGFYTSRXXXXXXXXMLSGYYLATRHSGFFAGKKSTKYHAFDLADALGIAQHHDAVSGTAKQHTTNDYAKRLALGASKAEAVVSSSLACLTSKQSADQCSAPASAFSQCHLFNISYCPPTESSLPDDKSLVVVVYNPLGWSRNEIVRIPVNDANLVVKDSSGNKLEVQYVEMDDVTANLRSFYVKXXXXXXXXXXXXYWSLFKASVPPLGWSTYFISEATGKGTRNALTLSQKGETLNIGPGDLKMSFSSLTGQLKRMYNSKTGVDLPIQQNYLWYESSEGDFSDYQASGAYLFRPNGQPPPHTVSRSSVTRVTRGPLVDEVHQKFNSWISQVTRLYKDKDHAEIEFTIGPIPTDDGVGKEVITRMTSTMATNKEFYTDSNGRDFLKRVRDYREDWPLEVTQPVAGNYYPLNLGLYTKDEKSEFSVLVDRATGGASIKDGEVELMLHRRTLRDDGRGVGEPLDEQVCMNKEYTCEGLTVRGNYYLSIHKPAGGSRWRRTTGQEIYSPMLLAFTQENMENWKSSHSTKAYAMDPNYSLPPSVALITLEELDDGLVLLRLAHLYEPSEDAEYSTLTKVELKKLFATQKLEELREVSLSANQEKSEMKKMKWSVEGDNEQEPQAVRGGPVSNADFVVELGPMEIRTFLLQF
Procedure: as §1

[2] = biological target: T2, α,α-Trehalase (Porcine kidney) (Sus scrofa, UniProt I3LIR5); test: α,α-Trehalase (porcine kidney) inhibition
T2 construct: purchased Sigma-Aldrich Chemical Co; host or cells: porcine kidney
T2 sequence (I3LIR5 24-583): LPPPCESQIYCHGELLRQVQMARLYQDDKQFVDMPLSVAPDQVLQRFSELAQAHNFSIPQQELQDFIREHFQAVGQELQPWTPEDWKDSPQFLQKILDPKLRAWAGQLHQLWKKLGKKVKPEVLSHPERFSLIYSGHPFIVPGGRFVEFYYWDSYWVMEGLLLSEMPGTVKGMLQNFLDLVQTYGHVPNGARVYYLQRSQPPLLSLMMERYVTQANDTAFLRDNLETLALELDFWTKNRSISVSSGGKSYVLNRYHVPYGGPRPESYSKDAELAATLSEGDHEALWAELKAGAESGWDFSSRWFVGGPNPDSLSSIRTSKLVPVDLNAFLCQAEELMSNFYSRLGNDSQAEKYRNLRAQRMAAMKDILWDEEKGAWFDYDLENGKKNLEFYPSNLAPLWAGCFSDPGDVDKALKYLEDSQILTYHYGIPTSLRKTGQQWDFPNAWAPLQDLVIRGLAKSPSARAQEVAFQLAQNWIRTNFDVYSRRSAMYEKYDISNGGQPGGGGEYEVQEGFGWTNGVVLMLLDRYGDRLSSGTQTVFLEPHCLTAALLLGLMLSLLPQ
Procedure: as §1

[3] = biological target: T3, β-Glucuronidase (Bovine liver) (Bos taurus, UniProt A3KMY8); test: β-Glucuronidase (bovine liver) inhibition
T3 construct: purchased Sigma-Aldrich Chemical Co; host or cells: bovine liver
T3 sequence (A3KMY8 1-652): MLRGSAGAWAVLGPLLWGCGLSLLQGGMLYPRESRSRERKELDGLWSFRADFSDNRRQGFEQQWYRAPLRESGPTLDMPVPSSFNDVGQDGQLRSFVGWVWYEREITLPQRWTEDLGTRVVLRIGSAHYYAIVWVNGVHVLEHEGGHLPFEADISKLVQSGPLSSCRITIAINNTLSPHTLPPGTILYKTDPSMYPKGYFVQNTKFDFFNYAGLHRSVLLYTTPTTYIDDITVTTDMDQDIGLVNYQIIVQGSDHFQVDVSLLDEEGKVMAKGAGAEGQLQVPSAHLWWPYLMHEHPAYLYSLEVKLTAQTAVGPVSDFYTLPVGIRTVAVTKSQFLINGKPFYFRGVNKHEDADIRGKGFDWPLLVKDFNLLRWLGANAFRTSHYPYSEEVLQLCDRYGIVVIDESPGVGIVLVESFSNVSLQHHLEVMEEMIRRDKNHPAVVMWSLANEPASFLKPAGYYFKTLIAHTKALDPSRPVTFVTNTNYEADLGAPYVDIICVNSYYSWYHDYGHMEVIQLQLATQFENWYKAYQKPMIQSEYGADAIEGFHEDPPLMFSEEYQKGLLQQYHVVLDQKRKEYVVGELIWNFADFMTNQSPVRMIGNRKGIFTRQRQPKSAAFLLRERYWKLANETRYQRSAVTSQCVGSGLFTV
Procedure: as §1

[4] = biological target: β-N-Acetylhexosaminidase (Bovine liver); test: β-N-Acetylhexosaminidase (bovine liver) inhibition; details: for IC50: β-N-Acetylhexosaminidase (β-GlcNAcase)
Procedure: as §1

[5] = biological target: β-N-Acetylgalactosaminidase (HL60); test: β-N-Acetylgalactosaminidase (HL60) inhibition
Procedure: as §1

[6] = 1000 μM, read-out: Inhibition % at 1000 μM

Structure (SMILES)	IC50 (Rat intestinal maltase)	Inhibition % at 1000 μM (Rat intestinal maltase)	IC50 (β-Glucosidase (Almond))	Inhibition % at 1000 μM (β-Glucosidase (Almond))	inhibition at 1000 µM [1, 6]	inhibition at 1000 µM ([1]; read-out: IC50)	inhibition at 1000 µM [2, 6]	inhibition at 1000 µM ([2]; read-out: IC50)	inhibition at 1000 µM [3, 6]	inhibition at 1000 µM ([3]; read-out: IC50)	IC50 ([4]; read-out: IC50)	IC50 [5]	Inhibition % at 1000 μM [5]	IC50 [4]	Inhibition % at 1000 μM ([4]; β-N-Acetylhexosaminidase, 1000 μM)
CC(=O)NC[C@H]1N[C@@H](CO)[C@H](O)[C@@H]1O [G-10, 1-N-acetylamino-2,5-imino-1,2,5-trideoxy-D-allitol hydrochloride]	NI (No Inhibition (less than 50% at 1000 μM))	16.0%	NI (No Inhibition (less than 50% at 1000 μM))	15.3%	4%	< 50%	5.6%	< 50%	0%	< 50%	299 µM	NI (No Inhibition (less than 50% at 1000 μM))	15.9%		
CC(=O)NC[C@@H]1N[C@H](CO)[C@@H](O)[C@H]1O [H-10, 1-N-acetylamino-2,5-imino-1,2,5-trideoxy-L-allitol hydrochloride]	NI (No Inhibition (less than 50% at 1000 μM))	13.6%	NI (No Inhibition (less than 50% at 1000 μM))	17.1%	9.5%	< 50%	40.9%	< 50%	0%	< 50%		NI (No Inhibition (less than 50% at 1000 μM))	5.3%	NI (No Inhibition (less than 50% at 1000 μM))	33.7%
